Measured values as given in patent publication US9273095B2, “Antibiotic peptide and preparation method therefor and application therefor” (priority 2011, dated 2016).
Converted amounts (≈) assume the structure as drawn. Read-outs that look alike come from different tables or passages of the source. Marks after values point to notes of the source that are not given here. Non-standard residues stand in square brackets, D forms with d. Residues, ends and D or L forms follow the SMILES beside them.

Experiments:
candida krusei = assay: microbe, parasite or virus in culture; format: cell-based; conditions: for MIC: Pichia kudriavzevii, read-out: Minimal inhibitory concentration
Excerpt: • (1) Test strains: monilia albicans (candida albicans), candida glabrata, candida krusei, candida tropicalis, aspergillus fumigatus and flavous. (2) Quality control strains: candida krusei JLC30366 (ATCC6258). Antimicrobial peptides PL-13 (SEQ ID NO: 1) under test are supplied by Jiangsu ProteLight Pharmaceutical & Biotechnology Co., LTD. […] (1) The bacterial strains which preserved on PDA slant are respectively inoculated onto PDA plate and slant medium. Activation of bacterial strains is conducted at a humidity level of 60% and 25° C. (for aspergillus) or 37° C. (for candida). (2) 0.9% stroke-physiological saline solution comprising 0.5% Tween-80 is used to prepare bacterial suspension for experiment. Hemocytometer is utilized to adjust concentration of the bacterial suspension to 1-3×10^6 CFU/ml (0.5 McFarland units) to make stock solution in reserve at -20° C. During the sensitivity test, the RPMI-1640 liquid medium is diluted 1000 times to 1-3×10^3 CFU/ml. (3) The RPMI-1640 liquid is utilized as diluent to 10-fold dilute stock solution of peptides. […] The eleventh orifice is used as living control orifice, while the twelfth one as blank control. (4) The RPMI-1640 liquid is utilized as diluent to 10-fold dilute stock solution of FCZ and ICZ. […] Ditto for other operations.

candida glabrata = assay: microbe, parasite or virus in culture; format: cell-based; conditions: for MIC: Nakaseomyces glabratus, read-out: Minimal inhibitory concentration
Method: (§1) • (1) Test strains: monilia albicans (candida albicans), candida glabrata, candida krusei, candida tropicalis, aspergillus fumigatus and flavous. Antimicrobial peptides PL-13 (SEQ ID NO: 1) under test are supplied by Jiangsu ProteLight Pharmaceutical & Biotechnology Co., LTD. […] Activation of bacterial strains is conducted at a humidity level of 60% and 25° C. (for aspergillus) or 37° C. (for candida). (2) 0.9% stroke-physiological saline solution comprising 0.5% Tween-80 is used to prepare bacterial suspension for experiment. Hemocytometer is utilized to adjust concentration of the bacterial suspension to 1-3×10^6 CFU/ml (0.5 McFarland units) to make stock solution in reserve at -20° C. During the sensitivity test, the RPMI-1640 liquid medium is diluted 1000 times to 1-3×10^3 CFU/ml. (3) The RPMI-1640 liquid is utilized as diluent to 10-fold dilute stock solution of peptides. […] The eleventh orifice is used as living control orifice, while the twelfth one as blank control. (4) The RPMI-1640 liquid is utilized as diluent to 10-fold dilute stock solution of FCZ and ICZ. […] Ditto for other operations.

candida albicans = assay: microbe, parasite or virus in culture; format: cell-based; conditions: for MIC: Candida albicans, read-out: Minimal inhibitory concentration
Method: as §1

aspergillus flavous = assay: microbe, parasite or virus in culture; format: cell-based; conditions: for MIC: JLC 30784 aspergillus flavous, read-out: Minimal inhibitory concentration
Method: as §1

aspergillus fumigatus = assay: microbe, parasite or virus in culture; format: cell-based; conditions: for MIC: JLC 30506 aspergillus fumigatus, read-out: Minimal inhibitory concentration
Method: as §1

candida tropicalis = assay: microbe, parasite or virus in culture; format: cell-based; conditions: for MIC: Candida tropicalis, read-out: Minimal inhibitory concentration
Method: as §1

[1] = test system: Staphylococcus epidermidis; assay: microbe, parasite or virus in culture; format: cell-based
Method: (§2) The experimental strains are 37 standard strains preserved in lab and clinical isolated bacteria, including drug-resistant bacteria and quality-control bacteria selecting Staphylococcus aureus ATCC29213, Enterococcus faecalis ATCC29212, Escherichia coli ATCC25922, Pseudomonas aeruginosa ATCC27853 and klebsiella pneumoniae ATCC700603.
(§3) (1) Sensitivity test is conducted with two-fold agar dilution method and Denlay multipoint inoculator. Test bacteria are cultured with nutrient broth and brain heart infusion.
(§4) (2) The drug is double diluted into different concentration with MH broth after dissolved and then placed in the plate respectively.
(§5) (3) After dissolved, MH agar culture medium are injected into the plate with drug quantitatively and mixed to make the final concentration of drug are 0.03, 0.06, 0.125, . . . , 128 μg/ml respectively.
(§6) (4) After solidification of the culture medium in the plate, test bacteria (10^4CFU/point) are inoculated by multipoint inoculator and cultured for 18 hours at constant 35° C. Then observe the results.

[2] = test system: Acinetobacter calcoaceticus; assay: microbe, parasite or virus in culture; format: cell-based
Method: as §2, §3, §4, §5, §6

Enterococcus faecium = assay: microbe, parasite or virus in culture; format: cell-based
Method: as §2, §3, §4, §6

[3] = test system: red cell suspension from healthy volunteers; assay: Hemolytic activity test; format: cell-based, human; conditions: for Hemolytic activity, absorbancy (OD value) at 570 nm: 4 hours at 37° C., OD higher than 0.1 is hemolytic, n = 3
Method: (1) Samples are serial diluted with sterile PBS to 1000, 500, 250, 125, 64, 32, 16, 8, 4 μg/ml in turn and spread in 96-well plates, 100 μl per orifice.
(2) We use distilled water as positive control, sterile PBS as negative control and blank orifice with 200 μl PBS solution added. Each concentration above is made in triplicate.
(3) We take 3 ml whole blood from healthy volunteers and washed it with sterile PBS three times to prepare fresh 2% concentration red cell suspension. Then we added 100 μl red cell suspension into each orifice and made them cultured for 4 hours at 37° C. in the incubator. After centrifuged by plate-swashing centrifuge, the supernatant liquid is collected and measured absorbancy (OD value) at a wavelength of 570 nm. Then we compared the hemolytic efficiency of these concentrations.
(4) According to the documents standard, OD value which is higher than 0.1 is hemolytic concentration.

Bacillus dysenteriae = assay: Therapeutic test of oral preparation on mice with systemic infection, survival time; format: in vivo, ICR mice; conditions: 80 mg/kg gavage three times a day for seven days, n = 10
Method: (§7) There are 30 male and 30 female ICR mice with the weight ranging from 18 g to 22 g. […] With trinitrophenal marking method, all the mice are raised with ordinary animal feeds in the ordinary animal houses and they can drink water freely. Alternating of light and dark is conducted every 12 hours.
(§8) 2. Infected Strains: Escherichia and Bacillus dysenteriae
(§9) (1) The preparation of bacterial suspension is the same as above.
(§10) (2) The Escherichia suspension cultured overnight is diluted to 1×10^7CFU/ml. The Bacillus dysenteriae suspension cultured overnight is diluted to 1×10^5CFU/ml. They are all applied in reserve.
(§11) (3) Except the blank control group, every other mouse is injected with 0.2 ml Escherichia suspension with the concentration of 1×10^7CFU/ml or 0.2 ml Bacillus dysenteriae suspension with the concentration of 1×10^5CFU/ml intraperitoneally to make model.
(§12) (4) Administration: The drugs are administered according to mice′ weight right after the model is ready. All the groups excepting the blank and the infected negative control groups are administered by gavaging with different dosage of drugs three times a day successively for seven days, and they are observed for fourteen days.
(§13) (5) Observe death of the animals and record their survival time.

Escherichia = assay: as above; format: in vivo, ICR mice; conditions: 80 mg/kg gavage three times a day for seven days, n = 10
Method: as §7, §8, §9, §10, §11, §12, §13

[4] = JLC 30883 aspergillus fumigatus

For `OC(Cn1cncn1)(Cn1cncn1)c1ccc(F)cc1F` [FCZ, Fluconazol, reference compound], the MIC (candida krusei; JLC 30366 candida krusei) was 16 µg/mL (≈ 52.2 µM), the MIC (candida krusei; JLC 30383 candida krusei) was 8 µg/mL (≈ 26.1 µM) and the MIC (candida glabrata; JLC 30367 candida glabrata) was 2 µg/mL (≈ 6.53 µM). For the same compound, the MIC (candida glabrata; JLC 31512 candida glabrata) was 1 µg/mL (≈ 3.27 µM), the MIC (candida albicans; JLC 33659 candida albicans) was 0.25 µg/mL (≈ 0.816 µM) and the MIC (candida albicans; JLC 33660 candida albicans) was 0.25 µg/mL (≈ 0.816 µM). The MIC (aspergillus flavous) was > 64 µg/mL, the Minimal inhibitory concentration (aspergillus flavous; JLC 40437 aspergillus flavous) was >64 µg/mL and the MIC (aspergillus fumigatus) was > 64 µg/mL. The Minimal inhibitory concentration (aspergillus fumigatus; [4]) was >64 µg/mL, the MIC (candida tropicalis; JLC 31379 candida tropicalis) was 0.5 µg/mL (≈ 1.63 µM) and the MIC (candida tropicalis; JLC 31384 candida tropicalis) was 0.25 µg/mL (≈ 0.816 µM).
Compound `CCC(C)n1ncn(-c2ccc(N3CCN(c4ccc(OCC5COC(Cn6cncn6)(c6ccc(Cl)cc6Cl)O5)cc4)CC3)cc2)c1=O` (stereo not drawn) [ICZ, Itraconazole, reference compound] has an MIC (candida krusei; JLC 30366 candida krusei) of 0.25 µg/mL (≈ 0.354 µM), an MIC (candida krusei; JLC 30383 candida krusei) of 0.25 µg/mL (≈ 0.354 µM) and an MIC (candida glabrata; JLC 30367 candida glabrata) of 0.0625 µg/mL (≈ 0.0886 µM). For the same compound, the MIC (candida glabrata; JLC 31512 candida glabrata) was 0.03 µg/mL (≈ 0.0425 µM), the MIC (candida albicans; JLC 33659 candida albicans) was 0.03 µg/mL (≈ 0.0425 µM) and the MIC (candida albicans; JLC 33660 candida albicans) was 0.0625 µg/mL (≈ 0.0886 µM). For the same compound, the MIC (aspergillus flavous) was 0.125 µg/mL (≈ 0.177 µM), the Minimal inhibitory concentration (aspergillus flavous; JLC 40437 aspergillus flavous) was 0.125 µg/mL (≈ 0.177 µM) and the MIC (aspergillus fumigatus) was 0.125 µg/mL (≈ 0.177 µM). The Minimal inhibitory concentration (aspergillus fumigatus; [4]) was 0.125 µg/mL (≈ 0.177 µM), the MIC (candida tropicalis; JLC 31379 candida tropicalis) was 0.03 µg/mL (≈ 0.0425 µM) and the MIC (candida tropicalis; JLC 31384 candida tropicalis) was 0.03 µg/mL (≈ 0.0425 µM).
Compound `CC(=O)N[C@H](Cc1ccccc1)C(=O)N[C@H](CCCCN)C(=O)N[C@H](CCCCN)C(=O)N[C@H](CC(C)C)C(=O)N[C@H](CCCCN)C(=O)N[C@H](CCCCN)C(=O)N[C@H](CCCCN)C(=O)N[C@H](Cc1ccccc1)C(=O)N[C@H](CO)C(=O)N[C@H](CCCCN)C(=O)N[C@H](CC(C)C)C(=O)N[C@H](Cc1c[nH]c2ccccc12)C(=O)N[C@H](CC(N)=O)C(=O)N[C@H](Cc1c[nH]c2ccccc12)C(=O)N[C@H](CCCCN)C(N)=O` [PL-34] (Ac-[dF][dK][dK][dL][dK][dK][dK][dF][dS][dK][dL][dW][dN][dW][dK]-NH2) has an MIC ([1]; 08-17 (MSSE) Meticillin susceptible staphylococcus epidermidis) of 1.3 µM (≈ 2.67 µg/mL), an MIC ([1]; (MRSE) Methicillin-resistant Staphylococcus epidermidis ATCC12228) of 1.3 µM (≈ 2.67 µg/mL) and an MIC [2] of 1.3 µM (≈ 2.67 µg/mL). For the same compound, the MIC (Enterococcus faecium) was 1.3 µM (≈ 2.67 µg/mL), the “Hemolytic activity, absorbancy (OD value) at 570 nm” value (shortened to “Hemolytic activity, absorbancy”) ([3]; peptide 7.8125 μg/ml) was 0.032 and the “Hemolytic activity, absorbancy” value ([3]; peptide 15.625 μg/ml) was 0.041. The “Hemolytic activity, absorbancy” value ([3]; peptide 31.25 μg/ml) was 0.054, the “Hemolytic activity, absorbancy” value ([3]; peptide 62.5 μg/ml) was 0.061 and the “Hemolytic activity, absorbancy” value ([3]; peptide 125 μg/ml) was 0.073. The “Hemolytic activity, absorbancy” value ([3]; peptide 250 μg/ml) was 0.087, the “Hemolytic activity, absorbancy” value ([3]; peptide 500 μg/ml) was 0.135 and the “Hemolytic activity, absorbancy” value ([3]; peptide 1000 μg/ml) was 0.317. The “hemolytic toxicity (in words)” value ([3]; summary of Table 9) was “little hemolytic toxicity”, the Minimal inhibitory concentration (candida krusei) was 8 µg/mL (≈ 3.9 µM) and the Minimal inhibitory concentration (candida glabrata) was 32 µg/mL (≈ 15.6 µM). The Minimal inhibitory concentration (candida albicans) was 16 µg/mL (≈ 7.8 µM), the Minimal inhibitory concentration (aspergillus flavous) was >64 µg/mL and the Minimal inhibitory concentration (aspergillus fumigatus) was >64 µg/mL. For the same compound, the Minimal inhibitory concentration (candida tropicalis) was 4 µg/mL (≈ 1.95 µM).
`CCS(=O)(=O)CCn1c([N+](=O)[O-])cnc1C` [Tinidazole] was tested, and the Mean survival Time (Bacillus dysenteriae; observed fourteen days) was 7.0* day, the “Mortality of mice in different days after infection” value (“Mortality of mice in different days” below) (Bacillus dysenteriae; day 4) was 2 and the “Mortality of mice in different days” value (Bacillus dysenteriae; day 5) was 1. For the same compound, the “Mortality of mice in different days” value (Bacillus dysenteriae; day 6) was 2, the “Mortality of mice in different days” value (Bacillus dysenteriae; day 7) was 2 and the “Mortality of mice in different days” value (Bacillus dysenteriae; day 8) was 1. For the same compound, the “Mortality of mice in different days” value (Bacillus dysenteriae; day 9) was 1, the Mean survival Time (Escherichia; observed fourteen days) was 7.5* day and the “Mortality of mice in different days” value (Escherichia; day 4) was 1. The “Mortality of mice in different days” value (Escherichia; day 5) was 2, the “Mortality of mice in different days” value (Escherichia; day 6) was 2 and the “Mortality of mice in different days” value (Escherichia; day 7) was 1. For the same compound, the “Mortality of mice in different days” value (Escherichia; day 8) was 1 and the “Mortality of mice in different days” value (Escherichia; day 9) was 2.
